From paper PMC12381739, “Druglike Molecular Degraders of the Oncogenic RNA-Binding Protein HuR” (JACS Au, 2025)

How the values were obtained:
[1] = biological target: HuR (Homo sapiens, UniProt Q15717); test: HuR protein expression by western blot in MCF-7 cells; type: cell-based; set-up: endogenous in cells; host or cells: MCF-7
Description: Michigan Cancer Foundation-7 (MCF-7) cells were chosen due to their documented overexpression of HuR, which has been linked to cancer pathogenicity in this specific cell line. , Consequently, reducing HuR expression to physiologically normal levels is considered a potential strategy for novel anticancer therapies targeting breast cancers associated with HuR overexpression.
Total protein was extracted using RIPA cell lysis buffer (BioPrep) containing a protease inhibitor, and protein concentration was measured using the BCA protein assay (Sigma-Aldrich) according to the manufacturer’s protocol. Approximately 30 μg of total protein were resolved on a 12% SDS-acrylamide gel and transferred to a PVDF membrane (Immobilon FL transfer membrane; Merck). The membrane was washed with 1× Tris-buffered saline (TBS) containing 0.1% (v/v) Tween-20 (TBST; Tris-base, pH 7.6, NaCl, and Tween-20) and blocked in 1× TBST containing 5% (w/v) BSA for 2 h at room temperature. The membrane was then incubated overnight at 4 °C with primary antibodies: a 1:1000 dilution of rabbit anti-ELAVL1/HuR (Cell Signaling Technology, #12582), a 1:1000 dilution of mouse anti-Bcl2 (Cell Signaling Technology, #15071), or a 1:10,000 dilution of rabbit anti-Vinculin (Cell Signaling Technology, #13901) in 1× TBST containing 5% (w/v) BSA. Following primary antibody incubation, the membrane was washed with 1× TBST and incubated with a 1:10,000 dilution of the appropriate horseradish-peroxidase-conjugated secondary antibody (antirabbit IgG: Cell Signaling, #7074 or antimouse IgG: Cell Signaling, #7076) at room temperature for 2 h. After washing three times with 1X TBST (10 min per wash), protein bands were visualized using Clear Band ECL Substrate (Gene Bio-Application) on the Azure C300 Imaging System. The fold change in the expression of the target proteins (HuR or Bcl2) was calculated by normalizing the band intensity to the Vinculin band intensity using ImageJ.

[2] = biological target: T1, HuR RRM1/2 (Homo sapiens, UniProt Q15717); test: Fluorescence polarization (FP) displacement assay, 5′ FAM-labeled RNA probe from HuR; conditions: displacement of 5′-FAM RNA probe UAUUUAUUUA (20 nM) from 500 nM HuR RRM1/2; read-out: Binding affinity towards HuR in FP assay (Kd)
T1 construct: 20 nM of the 5′-FAM RNA probe and 500 nM of HuR RRM1/2
Method: Following the synthesis, our initial aim was to ensure that the new derivatives retained their affinity for HuR’s RNA-binding pocket. Thus, a binding evaluation assay was conducted. As previously reported, the RNA-binding pocket of HuR specifically recognizes the UTR sequences of mRNAs, with […] identified as a common binding motif. To evaluate the binding of each degrader, we conducted a fluorescence-based assay utilizing a 5-carboxyfluorescein (5′ FAM)-labeled reporter. This fluorescence polarization (FP) assay is based on the displacement of the 5′ FAM-labeled mRNA from HuR’s RNA-binding pocket, which provides insight into both the binding affinity of the degrader and its capacity to disrupt the HuR-mRNA interaction, thereby serving as a means of validating target engagement. When the 5′ FAM-RNA probe is bound to HuR, it forms a binary complex, resulting in slower rotational movement and a consequently high FP signal. However, when either molecule displaces the 5′ FAM-labeled RNA, the probe is released into the solution, where it undergoes rapid rotation, leading to a significant reduction in the FP signal (Figure S3). This decrease in FP serves as a quantitative measure of the degrader’s ability to compete with mRNA for HuR binding. […] As mentioned above, we synthesized a series of HuR ligand derivatives featuring indole and benzothiophene cores, along with ester and carboxylic acid functional groups.
As previously reported, the sequence of the fluorescently labeled (5′-FAM) RNA probe is […]. The assays were performed in PBS buffer (20 mM sodium phosphate, 150 mM NaCl, 1 mM dithiothreitol, 0.05% PLURONIC-127, 15% DMSO) at 293 K. Fluorescence was measured using the Synergy H1 Hybrid Multi-Mode Microplate Reader (Biotek, Agilent) with excitation and emission wavelengths set to 485 and 528 nm, respectively. Each well of a 384-well plate contained 20 nM of the 5′-FAM RNA probe and 500 nM of HuR RRM1/2. Compounds were tested at eight concentrations (0.1 nM–100 μM), with compound 10 serving as a positive control and PBS as the negative control. The protein-mRNA mixture was incubated for 1.5 h to allow for binding interactions. After this incubation, the compounds were added, and the mixture was incubated for an additional hour. The FP emission of the resulting HuR-compound complex was then recorded. The percent inhibition of binding was calculated by comparing the FP values of experimental conditions to the PBS control. The FP value corresponding to the HuR-RNA complex in the presence of DMSO was used as the 100% complexation reference, while the FP value of the labeled RNA alone was set as 0% complexation. The dissociation constant (K d) for the compound-HuR binding interaction was determined by fitting the dose–response curve to specific binding models using Prism 10.2.2. All experiments were performed in triplicate.

[3] = test system: Bcl2 and FOXQ1 mRNA; test: mRNA RT-qPCR of Bcl2 and FOXQ1 in MCF-7 cells; type: cell-based, human
Method: MCF-7 cells were seeded into 12-well plates (∼150,000 cells per well) at 60–70% confluency incubated for 12 h. The cells were then treated with different synthesized compounds at the indicated concentrations or with vehicle control for 24 and 48 h. After treatment, total RNA was extracted using the QuickRNA Miniprep Kit (Zymo Research) according to the manufacturer’s protocol, including DNase I treatment. Reverse transcription was performed on 1 μg of total RNA using the qScript cDNA Synthesis Kit (Quantabio) following the manufacturer’s instructions. Approximately 30 ng of cDNA were used for each qPCR reaction, which was carried out using the Luna Universal qPCR Master Mix (New England BioLabs, cat# E3010G) on a CFX Opus 384 Real-Time PCR System. Relative expression levels of Bcl-2 and FOXQ1 were calculated by normalizing to GAPDH expression using the ΔΔCt method.

[4] = test system: MCF-7 and MDA-MB-231 cells; test: Cell counting-proliferation assay; type: cell-based, human; conditions: compared to Binders 1 and 2, at 24 and 48 h
Method: MCF-7 and MDA-MB-231 cells were seeded in 96-well plates to 80% confluency and treated with synthesized compounds at eight concentrations (0.1 nM–100 μM) for 24 and 48 h. Cell proliferation was assessed using the Resazurin Assay Kit (Abcam, ab228554), where each sample was incubated with 1× WST-8/CCK8 solution for 1 h. After incubation, fluorescence was measured by absorbance at 460 nm using the Synergy H1 Hybrid Multi-Mode Microplate Reader (Biotek, Agilent). Cell proliferation was calculated as the percent decrease in fluorescence of treated cells compared to untreated controls. All experiments were performed in triplicate.

Sequence of HuR (Q15717 whole entry): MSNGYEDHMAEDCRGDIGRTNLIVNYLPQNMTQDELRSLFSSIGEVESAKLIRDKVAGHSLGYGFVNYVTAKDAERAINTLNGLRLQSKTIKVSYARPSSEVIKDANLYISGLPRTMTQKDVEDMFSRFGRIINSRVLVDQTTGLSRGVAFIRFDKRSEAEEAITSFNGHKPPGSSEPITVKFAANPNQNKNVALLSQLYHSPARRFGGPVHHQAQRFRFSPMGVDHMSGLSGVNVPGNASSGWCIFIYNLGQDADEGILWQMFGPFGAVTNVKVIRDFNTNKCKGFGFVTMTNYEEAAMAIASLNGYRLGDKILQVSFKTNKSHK
T1 sequence (Q15717 18-186 limits assumed): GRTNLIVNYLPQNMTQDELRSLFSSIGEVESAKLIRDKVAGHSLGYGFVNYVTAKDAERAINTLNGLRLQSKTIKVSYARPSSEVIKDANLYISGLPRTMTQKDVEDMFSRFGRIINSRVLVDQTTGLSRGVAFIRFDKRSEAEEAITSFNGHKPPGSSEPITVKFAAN

reduction of HuR expression ([1]; MCF-7, 10 nM, 48 h): 42%
onset of activity (HuR degradation) ([1]; MCF-7, 10 μM): 48 h
time-dependent response of HuR degradation ([1]; MCF-7, 10 μM): showed a time-dependent response
reduction of HuR expression ([1]; MCF-7, 10 μM, 48 h): ~75%
degrader activity at intermediate concentration (hook effect) ([1]; around 0.1 μM, 48 h, MCF-7 and MDA-MB-231): loss of degrader activity
Kd [2]: 30 nM
SMILES: O=C1CCC(N2C(=O)c3cccc(NCc4cn(-c5ccc6sc(C(=O)O)cc6c5)nn4)c3C2=O)C(=O)N1 (stereo not drawn) [PRO-HuR3]
Bcl2 mRNA expression relative to lower concentrations ([3]; MCF-7, 1 μM): increase in Bcl2 expression
Bcl2 and FOXQ1 mRNA expression ([3]; MCF-7, concentrations ranging from 1 nM to 100 nM): decrease in the expression of both genes
cell proliferation [4]: significant decrease in cell proliferation
